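Step 1: Grow cells in 96-well plates. Step 2: Expose to compound for 48 hours at 5 concentrations. Step 3: Interpolate endpoints linearly; if unreached, use highest concentration. TGI: concentration producing complete growth inhibition.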
Key:
Assay in all cases: growth of human tumour cells (NCI), 48 h
SR leukemia = system: SR leukemia
OVCAR-5 ovarian = system: OVCAR-5 ovarian
CAKI-1 renal = system: CAKI-1 renal
LOX IMVI melanoma = system: LOX IMVI melanoma
HCT-116 colon = system: HCT-116 colon
MOLT-4 leukemia = system: MOLT-4 leukemia
SK-MEL-2 melanoma = system: SK-MEL-2 melanoma
DLD-1 colon = system: DLD-1 colon
DMS 273 small cell lung = system: DMS 273 small cell lung
UACC-62 melanoma = system: UACC-62 melanoma
HCC-2998 colon = system: HCC-2998 colon
KM12 colon = system: KM12 colon
UACC-257 melanoma = system: UACC-257 melanoma
SF-295 CNS = system: SF-295 CNS
EKVX NSCLC = system: EKVX NSCLC
U251 CNS = system: U251 CNS
NCI-H522 lung = system: NCI-H522 lung
CCRF-CEM leukemia = system: CCRF-CEM leukemia
TK-10 renal = system: TK-10 renal
IGROV1 ovarian = system: IGROV1 ovarian
SF-268 CNS = system: SF-268 CNS
K-562 leukemia = system: K-562 leukemia
SF-539 CNS = system: SF-539 CNS
SNB-75 CNS = system: SNB-75 CNS
OVCAR-8 ovarian = system: OVCAR-8 ovarian
HT29 colon = system: HT29 colon
A498 renal = system: A498 renal
SNB-19 CNS = system: SNB-19 CNS
DMS 114 small cell lung = system: DMS 114 small cell lung
SK-OV-3 ovarian = system: SK-OV-3 ovarian
SN12C renal = system: SN12C renal
XF 498 CNS = system: XF 498 CNS
HCT-15 colon = system: HCT-15 colon
KM20L2 colon = system: KM20L2 colon
ACHN renal = system: ACHN renal
MALME-3M melanoma = system: MALME-3M melanoma
SK-MEL-28 melanoma = system: SK-MEL-28 melanoma
NCI-H23 lung = system: NCI-H23 lung
NCI-H460 lung = system: NCI-H460 lung
NCI-H226 lung = system: NCI-H226 lung
COLO 205 colon = system: COLO 205 colon
RXF-631 renal = system: RXF-631 renal
SK-MEL-5 melanoma = system: SK-MEL-5 melanoma
UO-31 renal = system: UO-31 renal
SNB-78 CNS = system: SNB-78 CNS
786-0 renal = system: 786-0 renal
HOP-92 NSCLC = system: HOP-92 NSCLC
A549 NSCLC = system: A549 NSCLC
M14 melanoma = system: M14 melanoma
SW-620 colon = system: SW-620 colon
M19-MEL melanoma = system: M19-MEL melanoma
HL-60(TB) leukemia = system: HL-60(TB) leukemia
HOP-62 NSCLC = system: HOP-62 NSCLC
LXFL 529 NSCLC = system: LXFL 529 NSCLC
OVCAR-3 ovarian = system: OVCAR-3 ovarian
HOP-18 NSCLC = system: HOP-18 NSCLC
RPMI-8226 leukemia = system: RPMI-8226 leukemia
RXF 393 renal = system: RXF 393 renal
OVCAR-4 ovarian = system: OVCAR-4 ovarian

Measured: TGI

CN(C(=O)C12C3C4C1C1C4(C(=O)C45C6C7C4C4C5C6C74C)C3C12C)C(C)(C)C (stereo unspecified)
43.2 µM: HL-60(TB) leukemia
> 100 µM: SR leukemia | OVCAR-5 ovarian | CAKI-1 renal | LOX IMVI melanoma | HCT-116 colon | MOLT-4 leukemia | SK-MEL-2 melanoma | DLD-1 colon | DMS 273 small cell lung | UACC-62 melanoma | HCC-2998 colon | KM12 colon | UACC-257 melanoma | SF-295 CNS | EKVX NSCLC | U251 CNS | NCI-H522 lung | CCRF-CEM leukemia | TK-10 renal | IGROV1 ovarian | SF-268 CNS | K-562 leukemia | SF-539 CNS | SNB-75 CNS | OVCAR-8 ovarian | A498 renal | SNB-19 CNS | DMS 114 small cell lung | SK-OV-3 ovarian | SN12C renal | XF 498 CNS | HCT-15 colon | ACHN renal | MALME-3M melanoma | SK-MEL-28 melanoma | NCI-H23 lung | NCI-H460 lung | NCI-H226 lung | COLO 205 colon | RXF-631 renal | UO-31 renal | SNB-78 CNS | 786-0 renal | HOP-92 NSCLC | A549 NSCLC | M14 melanoma | SW-620 colon | M19-MEL melanoma | HOP-62 NSCLC | LXFL 529 NSCLC
85.3 µM: KM20L2 colon
35.1 µM: HT29 colon
81.7 µM: SK-MEL-5 melanoma

NC(=O)C(N)=O
> 100 µM: OVCAR-3 ovarian | SR leukemia | OVCAR-5 ovarian | LOX IMVI melanoma | HCT-116 colon | HOP-18 NSCLC | MOLT-4 leukemia | SK-MEL-2 melanoma | DLD-1 colon | DMS 273 small cell lung | UACC-62 melanoma | HCC-2998 colon | KM12 colon | UACC-257 melanoma | SF-295 CNS | EKVX NSCLC | U251 CNS | NCI-H522 lung | CCRF-CEM leukemia | TK-10 renal | SF-268 CNS | RPMI-8226 leukemia | K-562 leukemia | SF-539 CNS | OVCAR-8 ovarian | A498 renal | SNB-19 CNS | DMS 114 small cell lung | SK-OV-3 ovarian | SN12C renal | XF 498 CNS | HCT-15 colon | KM20L2 colon | ACHN renal | MALME-3M melanoma | RXF 393 renal | SK-MEL-28 melanoma | NCI-H23 lung | NCI-H460 lung | COLO 205 colon | SK-MEL-5 melanoma | UO-31 renal | SNB-78 CNS | 786-0 renal | HOP-92 NSCLC | A549 NSCLC | M14 melanoma | SW-620 colon | M19-MEL melanoma | HL-60(TB) leukemia | HOP-62 NSCLC | LXFL 529 NSCLC

O=c1cc2ccccc2nn1Cc1cccc(Cl)c1
94.5 µM: XF 498 CNS
> 100 µM: OVCAR-3 ovarian | OVCAR-5 ovarian | CAKI-1 renal | LOX IMVI melanoma | HCT-116 colon | HOP-18 NSCLC | SK-MEL-2 melanoma | DLD-1 colon | DMS 273 small cell lung | UACC-62 melanoma | HCC-2998 colon | KM12 colon | UACC-257 melanoma | SF-295 CNS | EKVX NSCLC | U251 CNS | CCRF-CEM leukemia | TK-10 renal | IGROV1 ovarian | SF-268 CNS | RPMI-8226 leukemia | K-562 leukemia | SF-539 CNS | SNB-75 CNS | OVCAR-8 ovarian | HT29 colon | A498 renal | SNB-19 CNS | DMS 114 small cell lung | SK-OV-3 ovarian | OVCAR-4 ovarian | SN12C renal | HCT-15 colon | KM20L2 colon | ACHN renal | MALME-3M melanoma | SK-MEL-28 melanoma | NCI-H23 lung | NCI-H460 lung | NCI-H226 lung | COLO 205 colon | RXF-631 renal | SK-MEL-5 melanoma | UO-31 renal | SNB-78 CNS | 786-0 renal | HOP-92 NSCLC | A549 NSCLC | M14 melanoma | SW-620 colon | M19-MEL melanoma | HOP-62 NSCLC

N#CC(C(=O)CCC(=O)C(C#N)c1ccccc1)c1ccccc1 (stereo unspecified)
> 100 µM: OVCAR-3 ovarian | SR leukemia | OVCAR-5 ovarian | CAKI-1 renal | LOX IMVI melanoma | HCT-116 colon | HOP-18 NSCLC | MOLT-4 leukemia | SK-MEL-2 melanoma | DLD-1 colon | DMS 273 small cell lung | UACC-62 melanoma | HCC-2998 colon | KM12 colon | UACC-257 melanoma | SF-295 CNS | EKVX NSCLC | U251 CNS | NCI-H522 lung | CCRF-CEM leukemia | TK-10 renal | IGROV1 ovarian | SF-268 CNS | RPMI-8226 leukemia | K-562 leukemia | SF-539 CNS | SNB-75 CNS | OVCAR-8 ovarian | HT29 colon | A498 renal | SNB-19 CNS | DMS 114 small cell lung | SK-OV-3 ovarian | OVCAR-4 ovarian | SN12C renal | XF 498 CNS | HCT-15 colon | ACHN renal | MALME-3M melanoma | RXF 393 renal | SK-MEL-28 melanoma | NCI-H23 lung | NCI-H460 lung | NCI-H226 lung | COLO 205 colon | SK-MEL-5 melanoma | UO-31 renal | SNB-78 CNS | 786-0 renal | HOP-92 NSCLC | A549 NSCLC | M14 melanoma | SW-620 colon | M19-MEL melanoma | HL-60(TB) leukemia | HOP-62 NSCLC | LXFL 529 NSCLC

From PubChem BioAssay (NCI)
